row,melting point [°C],SMILES
1,126 to 127,CC(C)(c1ccncn1)C(O)(Cn1cncn1)c1ccc(F)cc1F (stereo unspecified)
2,88 to 90,CC(=O)Oc1ccccc1C(=O)NC(Cl)C(Cl)(Cl)Cl (stereo unspecified)
3,80 to 84,CCCN(C)c1nc(N)nc2c1ncn2C1CC(F)C(CO)O1 (stereo unspecified)
4,209,NC(=O)c1cnc2ccc(Cl)cc2c1Cl
5,102,CN1CCC(OC2c3ccccc3CCn3c2nc(-c2ccccc2)c3C(N)=O)CC1 (stereo unspecified)
6,138,COc1ccc(C2CCN(C(=O)C(=O)NO)CC2)cc1CC1CCCC1
7,167 to 168,Nc1ccc(Sc2cccc3nccn23)cc1
8,196,C#CCOc1cc(OCC#C)c2c(=O)cc(-c3ccc(OC)c(OCC#C)c3)oc2c1
9,36 to 43,CCOC(=O)COc1cc(C=O)ccc1OCc1ccccc1
10,246 to 247,O=C(Nc1nccs1)c1nc(-c2ccc(N3CCCCCC3)cc2)[nH]c1-c1ccc(Cl)cc1
11,155,Cc1csc(C2=NOCCO2)c1S(N)(=O)=O
12,148 to 150,CN1CC(C(=O)N(C)Cc2ccc(Cl)c(Cl)c2)=C(O)C1=O
13,255 to 260,O=c1[nH]c2cc([N+](=O)[O-])c(Sc3cccc4cnccc34)cc2o1
14,116 to 117,CC(C)(C)c1cc(CCNCc2cccc(NC(=N)c3cccs3)c2)cc(C(C)(C)C)c1O
15,247 to 249,CC=CC(=O)Nc1ccc(-c2ccncc2)cc1
16,59 to 60,CCCCCCCCCCCCCC=C(C(=O)O)c1ccc2c(c1)C(C)(C)CCC2(C)C
17,214 to 216,CC(C)NC(=O)N1CCc2cc(S(=O)(=O)n3cc(-c4ccccc4)[nH]c3=O)ccc21
18,48 to 49,N#CCc1ccccc1Sc1ccc(Cl)c(Cl)c1
19,183 to 185,CCOC(=O)c1cn(CCF)c2nc(N3CCN(C(C)=O)CC3)c(F)cc2c1=O
20,> 250,O=S(=O)(Nc1ccc(Cl)nc1I)c1ccc2ncccc2c1
21,157 to 159,Nc1nc(F)nc2c1ncn2C1OC(COCc2ccccc2)C(OCc2ccccc2)C1OCc1ccccc1 (stereo unspecified)
22,156 to 158,CC(C)(C)C(=O)COc1nn(CC=C(Cl)Cl)c(-c2ccc(S(C)(=O)=O)cc2)c1-c1ccc(F)cc1
23,173 to 174,CCCCOCCOc1ccc(-c2ccc3c(c2)C=C(C(=O)Nc2ccc(C(O)c4ccccn4)cc2)CCS3(=O)=O)cc1 (stereo unspecified)

row,melting point [°C],SMILES
1,143,CCN(CC)C(=O)c1cncc(OC2SCC(O)C(O)C2O)c1 (stereo unspecified)
2,157 to 160,CCC(CC)Nc1c([N+](=O)[O-])cc(C)c(N)c1[N+](=O)[O-]
3,153 to 157,CC(C)Oc1cccc(-c2nn(C(C)c3oc4ccccc4c(=O)c3-c3cccc(F)c3)c3ncnc(N)c23)c1 (stereo unspecified)
4,220 to 222,O=C(Nc1n[nH]c(=S)s1)N[C@@H](Cc1ccccc1)C(=O)N1CCN(c2ccccn2)CC1
5,120 to 123,O=C(CN1CCC(Cc2ccc(F)cc2)CC1)Nc1ccc([N+](=O)[O-])cc1
6,150 to 151,CCCC(O)c1c(C)c(NC(=O)CC(C)(C)C)c(C)c2c1OCC2c1ccc(C(C)C)cc1 (stereo unspecified)
7,82,CCCCN(CCCC)C(=O)Nc1ccccc1
8,247 to 248,COc1cccn2c(=O)c3c(nc12)C(=Cc1ccccc1Cl)CC3
9,181 to 183,O=C(O)c1ccc(O)c(Oc2ccccc2)c1
10,214,Cc1nc(-c2ccc(C(F)(F)F)cc2)oc1Sc1ccc(Cc2nn[nH]n2)cc1
11,120 to 121,CC1(C)C(=O)Oc2ccc(OS(C)(=O)=O)cc21
12,93,CC(C)(C)OC(=O)Nc1ccc(-c2cccc(F)c2F)cc1[N+](=O)[O-]
13,72 to 74,CCOC(=O)c1cnn2c1c(NCCCN(C)C)nc1ccccc12
14,266 to 269,CS(=O)c1n[nH]c2ccccc2c1=O (stereo unspecified)
15,76.5 to 78,CCCCCCSCCSc1nc(N)n[nH]1
16,192 to 195,COc1ccc(S(=O)(=O)C2(C(=O)O)CCN(Cc3ccc(Cl)c(Cl)c3)CC2)cc1
17,69,COCCOc1ccc(OCC(O)CNCCNC(=O)N2CCOCC2)cc1 (stereo unspecified)
18,194 to 197,O=C(c1cccc2cc[nH]c12)N1CCN(c2ncccn2)CC1
19,194 to 196,Cc1cccc(-n2c(-c3cc(-c4ccccc4)c(N4CCOCC4)s3)nc3ccccc3c2=O)c1
20,161 to 164,CCOCc1nc2c(N)nc3ccccc3c2n1CCOCCNC(=O)NC1CCCCC1
21,158 to 160,NC1CCNC(c2cnccn2)C1 (stereo unspecified)
22,266 to 267,Nc1c(C(=O)c2ccncc2)[nH]c2cc(Cl)ccc12
23,166 to 168,O=C(NC(Cc1ccc(OCc2ccc(F)cc2)cc1)C(=O)O)c1cc2ccc(-c3ccc(Cl)cc3)cc2o1 (stereo unspecified)

row,melting point [°C],SMILES
1,95 to 96,CCOC(=O)c1cc2cc(N(C)C)ccc2s1
2,116,CN=C(NC#N)S(C)=O (stereo unspecified)
3,113 to 114,Cc1cc(OCc2coc(/C=C/c3ccc(S(=O)C(F)(F)F)cc3)n2)ccc1CCCCn1ccnn1 (stereo unspecified)
4,221 to 223,Cc1cc(Nc2nccc(-c3sc(N)nc3C)n2)ccc1N1CCCCC1
5,133,Cn1c(=O)oc(=O)c2cc(F)ccc21
6,184 to 186,COc1ccc(/C=C/C(=O)Nc2ccccc2C(N)=O)cc1OC
7,125 to 129,Cn1c(C(=O)NCCCn2ccnc2)cc2ccccc21
8,189 to 190,CC(C)c1cc(C=C2Sc3ccccc3N(Cc3nnn[nH]3)C2=O)cc(C(C)C)c1O
9,61 to 62,Nc1cc(C(=O)OC2CCCC2)c(Cl)cc1F
10,123 to 125,CCOC(=O)C#CCOCC1=C(C(=O)OCC)C(c2cccc(Cl)c2Cl)C(C(=O)OC)=C(C)N1 (stereo unspecified)
11,122 to 124,CCCCCC(CCCCCO)NCc1cc2cc3c(cc2c2cc(OC)ccc12)OCO3 (stereo unspecified)
12,172 to 173,Cc1nc(-c2ccc(C(F)(F)F)cc2)sc1CN(C)c1ccc(OCC(=O)O)c(I)c1
13,185 to 200,Cc1oc(-c2ccccc2)nc1Cc1cc2cc(C=C3OC(=O)NC3=O)ccc2o1
14,211 to 212,CN(Cc1cc(C(F)(F)F)cc(C(F)(F)F)c1)C(=O)c1c(-c2ccc(F)cc2)c2cccnc2c(=O)n1C
15,191 to 193,CC(C)CCCC(C)C1CCC2(CC(=O)O)C3=C(CCC12C)C1(C)CCC(O)CC1CC3 (stereo unspecified)
16,146 to 148,COc1ccccc1C1CC(=O)CC(c2ccccc2OC)N1C (stereo unspecified)
17,81 to 81.5,CC(C)c1nn2ccccc2c1C=O
18,110 to 113,CC1CC(=O)c2c(OS(=O)(=O)c3cccs3)ccc(Br)c2C1 (stereo unspecified)
19,160 to 161,O=C(O)[C@@H]1CCCN1C(=O)C(Sc1nc2cc(Cl)ccc2s1)c1ccccc1 (stereo partly specified)
20,131 to 132,CC(C)Nc1cccnc1N1CCN(C(=O)c2ccc(C(=O)N(C)CCO)cc2)CC1
21,70 to 72,CC1=C2C=c3c(cnn3CC(C)N=[N+]=[N-])=C2CC=C1 (racemic)
22,149 to 151,CC(C)(C)c1nc(C(=O)O)c(Cl)c(N)c1F
23,149 to 151,COc1ccc(-c2cc(OC)c(OC)cc2[N+](=O)[O-])cc1OC

row,melting point [°C],SMILES
1,223 to 224,CCCCc1ncc(C/C=C/C(N)(Cc2cccs2)C(=O)O)n1Cc1ccc(C(=O)O)cc1 (stereo unspecified)
2,121 to 125,CCCc1c(OCCCCCC(=O)c2cc(C)c(O)c(O)c2C)ccc(C(=O)O)c1O
3,79.1 to 81,COc1ccc(/C=C(/C#N)c2c(F)cccc2F)cc1OC1CCCC1
4,83 to 85,CN1C(=S)CSC=C1c1ccccc1
5,74 to 76,Nc1c(Cl)cc(C(O)CNCCCCCCOCCCCc2ccccc2)cc1Cl (stereo unspecified)
6,148 to 149,CCOC(=O)c1c(S(N)(=O)=O)c2ccccc2n1CC
7,99 to 102,COC(=O)C1C(c2ccccc2)OC(=O)N1C(c1ccccc1)c1ccccc1 (stereo unspecified)
8,105 to 107,CCOc1cc([C@@H](CC(=O)N(C)C)N2Cc3cccc(NC(=O)N(C)C)c3C2=O)ccc1OC
9,202 to 204,N#Cc1c(N2CCCC2)cc(-c2ccccc2)c2c1-c1ccccc1C2=O
10,186 to 187,CCOC(=O)C(=O)Nc1sccc1C(N)=O
11,125 to 127,Cc1ccc(N(c2ccc(C)c(C)c2)c2cccc3ccccc23)cc1C
12,229 to 231,Cc1cnc(Sc2nc(C)c(CC(=O)O)s2)c(C(=O)O)c1
13,164 to 166,Cc1sc(-c2ccccc2)nc1CCC(=O)c1ccc(CC2SC(=O)NC2=O)s1 (stereo unspecified)
14,245 to 248,NC(=O)c1c(I)cc(I)c(C(N)=O)c1I
15,148 to 150,O=C1CC[C@@H]([N+](=O)[O-])[C@H](c2ccc(Cl)cc2)N1 (relative stereo)
16,177 to 178,NC(=NOC(=O)c1ccccc1)c1nc(Cl)c(Cl)[nH]1
17,61 to 62,C=CCc1nc(Cl)nc(Cl)c1OC
18,130 to 132,O=C1NC(=O)C(Cc2ccc(N3CCC(NC[C@H](O)COc4cccnc4)CC3)cc2)S1 (stereo partly specified)
19,163 to 164,Cc1ccc(C=C(F)C(=O)NC(Cc2ccccc2)C(=O)O)cc1 (stereo unspecified)
20,149 to 151,Nc1nc(COCCO)nc2nccnc12
21,112 to 114,Cn1nc(C(F)(F)F)c(CS(=O)C2=NOC(C)(C)C2)c1OC(F)F (stereo unspecified)
22,158 to 159,O=C(O)c1ccccc1Oc1ccc(Br)cc1NS(=O)(=O)c1cc(C(F)(F)F)cc(C(F)(F)F)c1

row,SMILES,melting point [°C]
1,Cc1cc(C)c(OP(=O)(C(=O)c2c(C)cc(C)cc2C)c2ccccc2)c(C)c1 (stereo unspecified),94 to 96
2,CC1(C)CCc2ccc(O)cc21,84.5 to 86.5
3,CCN1C(=O)N(c2cccc(C#N)c2C(F)(F)F)C(=O)C1(C)COC(=O)C(C)C (stereo unspecified),85
4,CN(C)C1(c2ccccc2)CCC2(CC1)NCCc1c2[nH]c2ccccc12 (stereo unspecified),214 to 218
5,CC(=O)NCCCCCC(=O)N1CC1C#N (stereo unspecified),74 to 77
6,Cc1c(O)cc2c(c1C)CCC2(C)C,117 to 118
7,CC1(C)CNC(=O)N1CC#CCN1CCCC1,50
8,C=CCN1C(=O)C[N+]([O-])=C(c2ccccc2F)c2cc(Cl)ccc21,183
9,O=C(O)c1nccn1C(c1ccccc1)c1ccccc1,191
10,CN(C)C1(c2ccccc2)CCC(O)(c2cc3ccccc3n2S(=O)(=O)c2ccccc2)CC1 (stereo unspecified),173 to 176

# — a melting point compilation (Tetko et al.; mined from patent text by program, amines drawn as free bases though some values may be those of a salt)
